ChEMBL document CHEMBL5352475, “Design, synthesis, and biological evaluation of novel glutaminase 1 allosteric inhibitors with an alkane chain tail group” (Eur J Med Chem, 2023)
Each block holds one molecule with its values, some of them ahead of it.

What was measured:
[1] = Metabolic stability in human liver microsomes assessed as clearance measured upto 120 mins by LC-MS/MS analysis; assay type: ADME, Microsome; conditions: read-out: CLH
HCT-116 [2] = assay: cells; conditions: Homo sapiens, HCT-116, 72 h
Description: Antiproliferative activity against human HCT-116 cells incubated for 72 hrs by MTT assay

[3] = Toxicity in BALB/c nude mouse xenografted with human HCT-116 cells assessed as prominent of nucleolus in liver at 100 mg/kg, ip upto 20 days; assay type: organism-based; conditions: in vivo, 480 h, time < 20 day
[4] = Toxicity in BALB/c nude mouse xenografted with human HCT-116 cells assessed as hyperplasia of renal tubular epithelium in kidney at 100 mg/kg, ip upto 20 days; assay type: organism-based; conditions: in vivo, 480 h, time < 20 day
[5] = Metabolic stability in human liver microsomes assessed as half life by LC-MS/MS analysis; assay type: ADME, Microsome
[6] = Toxicity in BALB/c nude mouse xenografted with human HCT-116 cells assessed as proliferation of hepatocyte in liver at 100 mg/kg, ip upto 20 days; assay type: organism-based; conditions: in vivo, 480 h, time < 20 day
[7] = Toxicity in BALB/c nude mouse xenografted with human HCT-116 cells assessed as partial pyknosis of nuclei in liver at 100 mg/kg, ip upto 20 days; assay type: organism-based; conditions: in vivo, 480 h, time < 20 day
[8] = Toxicity in BALB/c nude mouse xenografted with human HCT-116 cells assessed as degeneration of hepatocyte in liver at 100 mg/kg, ip upto 20 days; assay type: organism-based; conditions: in vivo, 480 h, time < 20 day
[9] = Toxicity in BALB/c nude mouse xenografted with human HCT-116 cells assessed as cytoplasmic acidophilia in liver at 100 mg/kg, ip upto 20 days; assay type: organism-based; conditions: in vivo, 480 h, time < 20 day
HCT-116 [10] = assay: Antitumor activity against human HCT-116 cells xenografted in BALB/c nude mouse assessed as tumor growth inhibition at 100 mg/kg, ip for 20 days relative to control; assay type: functional; conditions: time 20 day
[11] = Toxicity in BALB/c nude mouse xenografted with human HCT-116 cells assessed as as body weight loss at 100 mg/kg, ip upto 20 days; assay type: organism-based; conditions: in vivo, 480 h, time < 20 day
[12] = Toxicity in BALB/c nude mouse xenografted with human HCT-116 cells assessed as change in cell structure in lung at 100 mg/kg, ip upto 20 days; assay type: organism-based; conditions: in vivo, 480 h, time < 20 day
[13] = Toxicity in BALB/c nude mouse xenografted with human HCT-116 cells assessed as change in cell morphology in liver at 100 mg/kg, ip upto 20 days; assay type: organism-based; conditions: in vivo, 480 h, time < 20 day
HCT-116 [14] = assay: Induction of apoptosis in human HCT-116 cells assessed as late apoptotic cells at 3 uM measured after 24 hrs by FITC annexin-V/PI staining based flow cytometric analysis (reference value: 5.41%); assay type: functional
[15] = Toxicity in BALB/c nude mouse xenografted with human HCT-116 cells assessed as obvious tissue lesion in spleen at 100 mg/kg, ip upto 20 days; assay type: organism-based; conditions: in vivo, 480 h, time < 20 day
HCT-116 [16] = assay: Induction of apoptosis in human HCT-116 cells assessed as early apoptotic cells at 0.3 uM measured after 24 hrs by FITC annexin-V/PI staining based flow cytometric analysis (reference value: 3.73%); assay type: functional
[17] = Toxicity in BALB/c nude mouse xenografted with human HCT-116 cells assessed as change in cell morphology in lung at 100 mg/kg, ip upto 20 days; assay type: organism-based; conditions: in vivo, 480 h, time < 20 day
[18] = Toxicity in BALB/c nude mouse xenografted with human HCT-116 cells assessed as obvious tissue lesion in kidney at 100 mg/kg, ip upto 20 days; assay type: organism-based; conditions: in vivo, 480 h, time < 20 day
[19] = Toxicity in BALB/c nude mouse xenografted with human HCT-116 cells assessed as change in cell structure in kidney at 100 mg/kg, ip upto 20 days; assay type: organism-based; conditions: in vivo, 480 h, time < 20 day
HCT-116 [20] = assay: Induction of apoptosis in human HCT-116 cells assessed as late apoptotic cells at 1 uM measured after 24 hrs by FITC annexin-V/PI staining based flow cytometric analysis (reference value: 5.41%); assay type: functional
[21] = Toxicity in BALB/c nude mouse xenografted with human HCT-116 cells assessed as obvious tissue lesion in liver at 100 mg/kg, ip upto 20 days; assay type: organism-based; conditions: in vivo, 480 h, time < 20 day
[22] = molecular target: T1, Glutaminase kidney isoform, mitochondrial (Homo sapiens) (UniProt O94925)
T1 sequence (whole entry): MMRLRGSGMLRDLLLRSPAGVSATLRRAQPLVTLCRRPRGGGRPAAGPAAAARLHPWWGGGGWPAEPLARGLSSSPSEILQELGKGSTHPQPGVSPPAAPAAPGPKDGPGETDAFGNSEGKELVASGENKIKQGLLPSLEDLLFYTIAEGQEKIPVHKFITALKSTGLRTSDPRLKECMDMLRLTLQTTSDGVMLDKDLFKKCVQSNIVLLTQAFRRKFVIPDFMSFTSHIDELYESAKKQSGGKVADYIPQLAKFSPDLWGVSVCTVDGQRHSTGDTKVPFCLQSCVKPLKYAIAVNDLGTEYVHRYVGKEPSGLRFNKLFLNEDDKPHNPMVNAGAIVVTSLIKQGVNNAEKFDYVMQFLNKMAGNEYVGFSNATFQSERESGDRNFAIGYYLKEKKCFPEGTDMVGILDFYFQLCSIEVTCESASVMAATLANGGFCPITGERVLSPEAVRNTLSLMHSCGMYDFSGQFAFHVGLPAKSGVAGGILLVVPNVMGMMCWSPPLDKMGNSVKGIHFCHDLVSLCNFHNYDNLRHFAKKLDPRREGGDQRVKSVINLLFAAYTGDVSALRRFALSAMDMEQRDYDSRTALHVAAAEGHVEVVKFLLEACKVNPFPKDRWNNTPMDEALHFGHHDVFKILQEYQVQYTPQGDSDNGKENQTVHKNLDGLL
Description: Stabilization of GLS1 (unknown origin) assessed as change in melting temperature by protein thermal assay

HCT-116 [23] = assay: Induction of apoptosis in human HCT-116 cells assessed as early apoptotic cells at 0.1 uM measured after 24 hrs by FITC annexin-V/PI staining based flow cytometric analysis (reference value: 3.73%); assay type: functional
[24] = Toxicity in BALB/c nude mouse xenografted with human HCT-116 cells assessed as change in cell structure in heart at 100 mg/kg, ip upto 20 days; assay type: organism-based; conditions: in vivo, 480 h, time < 20 day
[25] = Toxicity in BALB/c nude mouse xenografted with human HCT-116 cells assessed as change in cell morphology in heart at 100 mg/kg, ip upto 20 days; assay type: organism-based; conditions: in vivo, 480 h, time < 20 day
HCT-116 [26] = assay: Antiproliferative activity against human HCT-116 cells in presence of alpha-ketoglutarate; assay type: functional, cell-based
[27] = Toxicity in BALB/c nude mouse xenografted with human HCT-116 cells assessed as change in cell structure in liver at 100 mg/kg, ip upto 20 days; assay type: organism-based; conditions: in vivo, 480 h, time < 20 day
[28] = Toxicity in BALB/c nude mouse xenografted with human HCT-116 cells assessed as change in cell structure in spleen at 100 mg/kg, ip upto 20 days; assay type: organism-based; conditions: in vivo, 480 h, time < 20 day
HCT-116 [29] = assay: Induction of apoptosis in human HCT-116 cells assessed as early apoptotic cells at 3 uM measured after 24 hrs by FITC annexin-V/PI staining based flow cytometric analysis (reference value: 3.73%); assay type: functional
[30] = Toxicity in BALB/c nude mouse xenografted with human HCT-116 cells assessed as obvious tissue lesion in heart at 100 mg/kg, ip upto 20 days; assay type: organism-based; conditions: in vivo, 480 h, time < 20 day
HCT-116 [31] = assay: Induction of apoptosis in human HCT-116 cells assessed as late apoptotic cells at 10 uM measured after 24 hrs by FITC annexin-V/PI staining based flow cytometric analysis (reference value: 5.41%); assay type: functional
HCT-116 [32] = assay: Induction of apoptosis in human HCT-116 cells assessed as early apoptotic cells at 10 uM measured after 24 hrs by FITC annexin-V/PI staining based flow cytometric analysis (reference value: 3.73%); assay type: functional
HCT-116 [33] = assay: Induction of apoptosis in human HCT-116 cells assessed as early apoptotic cells at 1 uM measured after 24 hrs by FITC annexin-V/PI staining based flow cytometric analysis (reference value: 3.73%); assay type: functional
HCT-116 [34] = assay: Induction of apoptosis in human HCT-116 cells assessed as late apoptotic cells at 0.1 uM measured after 24 hrs by FITC annexin-V/PI staining based flow cytometric analysis (reference value: 5.41%); assay type: functional
[35] = Toxicity in BALB/c nude mouse xenografted with human HCT-116 cells assessed as obvious tissue lesion in lung at 100 mg/kg, ip upto 20 days; assay type: organism-based; conditions: in vivo, 480 h, time < 20 day
[36] = Toxicity in BALB/c nude mouse xenografted with human HCT-116 cells assessed as change in cell morphology in spleen at 100 mg/kg, ip upto 20 days; assay type: organism-based; conditions: in vivo, 480 h, time < 20 day
HCT-116 [37] = assay: Induction of apoptosis in human HCT-116 cells assessed as late apoptotic cells at 0.3 uM measured after 24 hrs by FITC annexin-V/PI staining based flow cytometric analysis (reference value: 5.41%); assay type: functional
[38] = Toxicity in BALB/c nude mouse xenografted with human HCT-116 cells assessed as change in cell morphology in kidney at 100 mg/kg, ip upto 20 days; assay type: organism-based; conditions: in vivo, 480 h, time < 20 day
HCT-116 [39] = assay: Induction of apoptosis in human HCT-116 cells assessed as total apoptotic cells at 10 uM measured after 24 hrs by FITC annexin-V/PI staining based flow cytometric analysis relative to control; assay type: functional
[40] = molecular target: T2, Glutaminase kidney isoform, mitochondrial (Homo sapiens, UniProt O94925); assay: Inhibition of GLS1 (unknown origin) preincubated for 10 mins followed by glutamine addition measured after 60 mins
T2 sequence (O94925 whole entry): T1 sequence (whole entry)

microsomal CLint [1]: 35 µL/min/mg
IC50 (HCT-116 [2]): 560 nM
half-life [5]: 1.65 h
Compound: O=C(Cc1cccc(OC(F)(F)F)c1)Nc1ccc(CCCCc2nnc(NC(=O)Cc3ccccn3)s2)nn1
Activity [3]: Toxic
Activity [4]: Toxic
Activity [6]: Toxic
Activity [7]: Toxic
Activity [8]: Toxic
Activity [9]: Toxic
TGI (HCT-116 [10]): 43.7%
Activity [11]: Non-Toxic

microsomal CLint [1]: 32 µL/min/mg
IC50 (HCT-116 [2]): 61 nM
ΔTm [22]: 15.1 °C
half-life [5]: 1.8 h
IC50 (HCT-116 [26]): 41500 nM
IC50 [40]: 7 nM
Compound: CCCCOc1cccc(CC(=O)Nc2ccc(N3CCC(Nc4nnc(NC(=O)CCCC)s4)CC3)nn2)c1
Activity [12]: Non-Toxic
Activity [13]: Non-Toxic
Activity (HCT-116 [14]): 17.2%
Activity [15]: Non-Toxic
Activity (HCT-116 [16]): 5.76%
Activity [17]: Non-Toxic
Activity [18]: Non-Toxic
Activity [19]: Non-Toxic
Activity (HCT-116 [20]): 12.3%
Activity [21]: Non-Toxic
Activity (HCT-116 [23]): 4.9%
Activity [24]: Non-Toxic
Activity [25]: Non-Toxic
Activity [27]: Non-Toxic
Activity [28]: Non-Toxic
Activity (HCT-116 [29]): 6.54%
Activity [30]: Non-Toxic
Activity (HCT-116 [31]): 20.5%
Activity (HCT-116 [32]): 8.52%
Activity (HCT-116 [33]): 5.84%
Activity (HCT-116 [34]): 7.63%
Activity [35]: Non-Toxic
Activity [36]: Non-Toxic
TGI (HCT-116 [10]): 38.9%
Activity (HCT-116 [37]): 9.88%
Activity [11]: Non-Toxic
Activity [38]: Non-Toxic
Activity (HCT-116 [39]): ~30%
